Patent US9133219B2, “Bicyclic antibiotics” (Basilea Pharmaceutica AG, priority 2009, dated 2015)
Converted amounts (≈) assume the structure as drawn.

Experiments:
Format in all cases: cell-based
Escherichia coli = assay: Anti-microbial activity assay, MIC by broth microdilution; details: Escherichia coli; strain UB1005; read-out: MIC Escherichia coli UB1005
Procedure: (§1) Anti-Microbial Activity Assay.
(§2) The antibacterial activity of compounds is determined by the minimal inhibitory concentration (MIC) method. MICs for all bacteria except pneumococci and Haemophilus influenzae are obtained by broth microdilution with cation-adjusted Mueller-Hinton broth (CAMHB; BBL), according to CLSI guidelines (National Committee for Clinical Laboratory Standards. 2003. Methods for dilution antimicrobial susceptibility tests for bacteria that grow aerobically, 5th ed.; approved standard M7-A6. National Committee for Clinical Laboratory Standards, Wayne, Pa.), with the following modifications: (i) for pneumococci CAMHB is supplemented with 5% (^v/v) horse serum; (ii) for Haemophilus influenzae CAMHB is supplemented with 5% (^v/v) Fildes enrichment (BBL) (Pankuch, G. A., Hoellman, D. B., Lin, G., Bajaksouzian, S., Jacobs, M. R., and Appelbaum, P. C. 1998. Activity of HMR 3647 compared to those of five agents against Haemophilus influenzae and Moraxella catarrhalis by MIC determination and time-kill assay. Antimicrob. Agents Chemother. 42:3032-3034). Microtiter plates are incubated at 35° C. in ambient air for 20 to 24 h, then inspected using an illuminated microtiter plate reader fitted with a magnifying mirror (MIC 2000; Cooke Laboratory Products, Alexandria, Va.). Compounds of the present invention are tested against several bacteria strains comprising some Acinetobacter baumannii, Enterococcus faecalis, Enterococcus faecitan, Escherichia coli, Haemophilus influenzae, Klebsiella pneumoniae, Pseudomonas aeruginosa, Staphylococcus aureus, Staphylococcus epidermidis and Streptococcus pneumoniae.

Staphylococcus aureus = assay: as above; details: Staphylococcus aureus; strain ATCC29213; read-out: MIC Staphylococcus aureus ATCC29213
Procedure: as §1, §2

[1] = tested on: Staphylococcus epidermidis; assay: as above; details: Staphylococcus epidermidis; strain ATCC14990
Procedure: as §1, §2

[2] = tested on: Staphylococcus aureus and/or Staphylococcus epidermidis; assay: MIC summary statement, staphylococci; details: generally, for Staphylococcus aureus and/or Staphylococcus epidermidis
Procedure: as §1, §2

[3] = tested on: Staphylococcus aureus and/or Staphylococcus epidermidis and/or Streptococcus pneumoniae; assay: MIC summary statement, staphylococci and pneumococci; details: generally, for Staphylococcus aureus and/or Staphylococcus epidermidis and/or Streptococcus pneumoniae
Procedure: as §1, §2

Streptococcus pneumoniae = assay: Anti-microbial activity assay, MIC by broth microdilution (CAMHB with 5% horse serum); details: Streptococcus pneumoniae; strain ATCC49619; CAMHB with 5% horse serum; read-out: MIC Streptococcus pneumoniae ATCC49619
Procedure: as §1, §2

In the case of `COc1ccc2ncc(SCCN3CCC(NC(=O)c4ccc5c(c4)OCCO5)CC3)nc2c1` [Example 39, 2,3-dihydro-benzo[1,4]dioxine-6-carboxylic acid {1-[2-(7-methoxy-quinoxalin-2-ylsulfanyl)-ethyl]-piperidin-4-yl}-amide], the MIC (Escherichia coli) is reported as no less than 32 µg/mL, the MIC (Staphylococcus aureus) is reported as no more than 2 µg/mL and the MIC [1] is reported as no more than 2 µg/mL. It also gave an MIC [2] of no more than 2 µg/mL, an MIC [3] of no more than 2 µg/mL and an MIC (Streptococcus pneumoniae) of no more than 2 µg/mL.
Molecule `COc1ccc2ncc(SCCN3CCC(N(C)Cc4ccc5c(c4)OCCO5)CC3)nc2c1` [Example 43, (2,3-dihydro-benzo[1,4]dioxin-6-ylmethyl)-{1-[2-(7-methoxy-quinoxalin-2-ylsulfanyl)-ethyl]-piperidin-4-yl}-methyl-amine] has an MIC (Escherichia coli) of 16 µg/mL (≈ 33.3 µM), an MIC (Staphylococcus aureus) of no more than 2 µg/mL and an MIC [1] of no more than 2 µg/mL. It also gave an MIC [2] of no more than 2 µg/mL, an MIC [3] of no more than 2 µg/mL and an MIC (Streptococcus pneumoniae) of no more than 2 µg/mL.
`COc1ccc2ncc(OC(CN3CCC(NC(=O)c4ccc5c(c4)NC(=O)CS5)CC3)C(F)(F)F)nc2c1` (stereo not shown) [Example 14, 3-oxo-3,4-dihydro-2H-benzo[1,4]thiazine-6-carboxylic acid {1-[3,3,3-trifluoro-2-(7-methoxy-quinoxalin-2-yloxy)-propyl]-piperidin-4-yl}-amide] was tested, and the MIC (Escherichia coli) was greater than 32 µg/mL, the MIC (Staphylococcus aureus) was no more than 2 µg/mL and the MIC [1] was 8 µg/mL (≈ 14.2 µM). The MIC [2] was no more than 2 µg/mL and the MIC (Streptococcus pneumoniae) was 8 µg/mL (≈ 14.2 µM).
For `COc1ccc2ncc(OCC[C@H]3CC[C@H](NC(=O)c4ccc5c(c4)NC(=O)CO5)CC3)cc2n1` [Example 6, 3-oxo-3,4-dihydro-2H-benzo[1,4]oxazine-6-carboxylic acid {trans-4-[2-(6-methoxy-[1,5]naphthyridin-3-yloxy)-ethyl]-cyclohexyl}-amide], the MIC (Escherichia coli) was greater than 32 µg/mL, the MIC (Staphylococcus aureus) was no more than 2 µg/mL and the MIC [1] was no more than 2 µg/mL. For the same molecule, the MIC [2] was no more than 2 µg/mL and the MIC (Streptococcus pneumoniae) was 4 µg/mL (≈ 8.39 µM).
`COc1ccc2ncc(OCC[C@H]3CC[C@H](NC(=O)c4ccc5c(c4)NC(=O)CS5)CC3)nc2c1` [Example 4, 3-oxo-3,4-dihydro-2H-benzo[1,4]thiazine-6-carboxylic acid {trans-4-[2-(7-methoxy-quinoxalin-2-yloxy)-ethyl]-cyclohexyl}-amide] was tested, and the MIC (Escherichia coli) was greater than 32 µg/mL, the MIC (Staphylococcus aureus) was no more than 2 µg/mL and the MIC [1] was no more than 2 µg/mL. For the same molecule, the MIC [2] was no more than 2 µg/mL and the MIC (Streptococcus pneumoniae) was greater than 32 µg/mL.
In the case of `COc1ccc2ccc(OCCN3CCC(NC(=O)c4ccc5c(n4)NC(=O)CS5)CC3)nc2c1` [Example 17, 3-oxo-3,4-dihydro-2H-pyrido[3,2-b][1,4]thiazine-6-carboxylic acid {1-[2-(7-methoxy-quinolin-2-yloxy)-ethyl]-piperidin-4-yl}-amide], the MIC (Escherichia coli) is reported as greater than 32 µg/mL, the MIC (Staphylococcus aureus) is reported as no more than 2 µg/mL and the MIC [1] is reported as 4 µg/mL (≈ 8.1 µM). It also gave an MIC [2] of no more than 2 µg/mL and an MIC (Streptococcus pneumoniae) of 16 µg/mL (≈ 32.4 µM).
For `O=C1CSc2ccc(C(=O)N[C@H]3CC[C@H](CCOc4cnc5ccc(F)cc5n4)CC3)cc2N1` [Example 7, 3-oxo-3,4-dihydro-2H-benzo[1,4]thiazine-6-carboxylic acid {trans-4-[2-(7-fluoro-quinoxalin-2-yloxy)-ethyl]-cyclohexyl}-amide], the MIC (Escherichia coli) was greater than 32 µg/mL, the MIC (Staphylococcus aureus) was no more than 2 µg/mL and the MIC [1] was greater than 32 µg/mL. For the same molecule, the MIC [2] was no more than 2 µg/mL and the MIC (Streptococcus pneumoniae) was greater than 32 µg/mL.
For `COc1ccc2ncc(OCCN3CCC(NC(=O)c4cc5c(cc4Cl)SCC(=O)N5)CC3)nc2c1` [Example 15, 7-chloro-3-oxo-3,4-dihydro-2H-benzo[1,4]thiazine-6-carboxylic acid {1-[2-(7-methoxy-quinoxalin-2-yloxy)-ethyl]-piperidin-4-yl}-amide], the MIC (Escherichia coli) was 4 µg/mL (≈ 7.58 µM), the MIC (Staphylococcus aureus) was no more than 2 µg/mL and the MIC [1] was no more than 2 µg/mL. The MIC [2] was no more than 2 µg/mL and the MIC (Streptococcus pneumoniae) was 8 µg/mL (≈ 15.2 µM).
With `COc1ccc2ncc(OCCN3CCC(NC(=O)c4cc5c(cc4Cl)SCC(=O)N5)CC3)cc2n1` [Example 16, 7-chloro-3-oxo-3,4-dihydro-2H-benzo[1,4]thiazine-6-carboxylic acid {1-[2-(6-methoxy-[1,5]naphthyridin-3-yloxy)-ethyl]-piperidin-4-yl}-amide] the MIC (Escherichia coli) was 8 µg/mL (≈ 15.2 µM), the MIC (Staphylococcus aureus) was no more than 2 µg/mL and the MIC [1] was 4 µg/mL (≈ 7.58 µM). The MIC [2] was no more than 2 µg/mL and the MIC (Streptococcus pneumoniae) was 8 µg/mL (≈ 15.2 µM).
`COc1ccc2ncc(SCCN3CCC(NCc4cc(-c5cccs5)on4)CC3)nc2c1` [Example 42, {1-[2-(7-methoxy-quinoxalin-2-ylsulfanyl)-ethyl]-piperidin-4-yl}-(5-thiophen-2-yl-isoxazol-3-ylmethyl)-amine] showed an MIC (Escherichia coli) of 8 µg/mL (≈ 16.6 µM), an MIC (Staphylococcus aureus) of no more than 2 µg/mL and an MIC [1] of no more than 2 µg/mL. It also gave an MIC [2] of no more than 2 µg/mL, an MIC [3] of no more than 2 µg/mL and an MIC (Streptococcus pneumoniae) of no more than 2 µg/mL.
`COc1ccc2ncc(OCCCN3CC(NC(=O)c4ccc5c(c4)NC(=O)CS5)C3)nc2c1` [Example 8, 3-oxo-3,4-dihydro-2H-benzo[1,4]thiazine-6-carboxylic acid {1-[3-(7-methoxy-quinoxalin-2-yloxy)-propyl]-azetidin-3-yl}-amide] was tested, and the MIC (Escherichia coli) was 16 µg/mL (≈ 33.4 µM), the MIC (Staphylococcus aureus) was no more than 2 µg/mL and the MIC [1] was 4 µg/mL (≈ 8.34 µM). The MIC [2] was no more than 2 µg/mL and the MIC (Streptococcus pneumoniae) was 16 µg/mL (≈ 33.4 µM).
In the case of `COc1ccc2ncc(OCCN3CCC(NC(=O)c4cc(-c5cccs5)on4)CC3)nc2c1` [Example 5, 5-thiophen-2-yl-isoxazole-3-carboxylic acid {1-[2-(7-methoxy-quinoxalin-2-yloxy)-ethyl]-piperidin-4-yl}-amide], the MIC (Escherichia coli) is reported as greater than 32 µg/mL, the MIC (Staphylococcus aureus) is reported as no more than 2 µg/mL and the MIC [1] is reported as no more than 2 µg/mL. It also gave an MIC [2] of no more than 2 µg/mL, an MIC [3] of no more than 2 µg/mL and an MIC (Streptococcus pneumoniae) of no more than 2 µg/mL.
`CCN(Cc1ccc2c(c1)OCCO2)C1CCN(CCSc2cnc3ccc(OC)cc3n2)CC1` [Example 47, (2,3-dihydro-benzo[1,4]dioxin-6-ylmethyl)-ethyl-{1-[2-(7-methoxy-quinoxalin-2-ylsulfanyl)-ethyl]-piperidin-4-yl}-amine] showed an MIC (Escherichia coli) of 32 µg/mL (≈ 64.7 µM), an MIC (Staphylococcus aureus) of no more than 2 µg/mL and an MIC [1] of no more than 2 µg/mL. It also gave an MIC [2] of no more than 2 µg/mL, an MIC [3] of no more than 2 µg/mL and an MIC (Streptococcus pneumoniae) of no more than 2 µg/mL.
`COc1ccc2ncc(OCC[C@H]3CC[C@H](NC(=O)c4ccc5c(c4)NC(=O)CS5)CC3)cc2n1` [Example 2, 3-oxo-3,4-dihydro-2H-benzo[1,4]thiazine-6-carboxylic acid {trans-4-[2-(6-methoxy-[1,5]naphthyridin-3-yloxy)-ethyl]-cyclohexyl}-amide] was tested, and the MIC (Escherichia coli) was greater than 32 µg/mL, the MIC (Staphylococcus aureus) was no more than 2 µg/mL and the MIC [1] was no more than 2 µg/mL. For the same molecule, the MIC [2] was no more than 2 µg/mL, the MIC [3] was no more than 2 µg/mL and the MIC (Streptococcus pneumoniae) was no more than 2 µg/mL.
Work on `COc1ccc2ncc(OCCN3CCC(NC(=O)c4ccc5c(n4)NC(=O)CS5)CC3)nc2c1` [Example 20, 3-oxo-3,4-dihydro-2H-pyrido[3,2-b][1,4]thiazine-6-carboxylic acid {1-[2-(7-methoxy-quinoxalin-2-yloxy)-ethyl]-piperidin-4-yl}-amide] yielded an MIC (Escherichia coli) greater than 32 µg/mL, an MIC (Staphylococcus aureus) of no more than 2 µg/mL and an MIC [1] of no more than 2 µg/mL. It also gave an MIC [2] of no more than 2 µg/mL and an MIC (Streptococcus pneumoniae) greater than 32 µg/mL.
`COc1cnc2ccc(OCCN3CCC(NC(=O)c4ccc5c(c4)NC(=O)CS5)CC3)nc2c1` [Example 18, 3-oxo-3,4-dihydro-2H-benzo[1,4]thiazine-6-carboxylic acid {1-[2-(7-methoxy-[1,5]naphthyridin-2-yloxy)-ethyl]-piperidin-4-yl}-amide] was tested, and the MIC (Escherichia coli) was 8 µg/mL (≈ 16.2 µM), the MIC (Staphylococcus aureus) was no more than 2 µg/mL and the MIC [1] was no more than 2 µg/mL. For the same molecule, the MIC [2] was no more than 2 µg/mL and the MIC (Streptococcus pneumoniae) was 4 µg/mL (≈ 8.1 µM).
Molecule `COc1ccc2ncc(C(=O)OC[C@H]3CC[C@H](NC(=O)c4ccc5c(c4)NC(=O)CS5)CC3)cc2c1` [Example 28, 6-methoxy-quinoline-3-carboxylic acid trans-4-[(3-oxo-3,4-dihydro-2H-benzo[1,4]thiazine-6-carbonyl)-amino]-cyclohexylmethyl ester] has an MIC (Escherichia coli) greater than 32 µg/mL, an MIC (Staphylococcus aureus) of no more than 2 µg/mL and an MIC [1] of no more than 2 µg/mL. The MIC [2] was no more than 2 µg/mL and the MIC (Streptococcus pneumoniae) was greater than 32 µg/mL.
With `COc1cnc2ccc(OCCN3CCC(NC(=O)c4cc5c(cc4Cl)SCC(=O)N5)CC3)nc2c1` [Example 19, 7-chloro-3-oxo-3,4-dihydro-2H-benzo[1,4]thiazine-6-carboxylic acid {1-[2-(7-methoxy-[1,5]naphthyridin-2-yloxy)-ethyl]-piperidin-4-yl}-amide] the MIC (Escherichia coli) was 4 µg/mL (≈ 7.58 µM), the MIC (Staphylococcus aureus) was no more than 2 µg/mL and the MIC [1] was no more than 2 µg/mL. It also gave an MIC [2] of no more than 2 µg/mL and an MIC (Streptococcus pneumoniae) of 8 µg/mL (≈ 15.2 µM).
`COc1ccc2ncc(OCCN3CCC(NC(=O)c4ccc5c(c4)NC(=O)CS5)CC3)nc2c1` [Example 1, 3-oxo-3,4-dihydro-2H-benzo[1,4]thiazine-6-carboxylic acid {1-[2-(7-methoxy-quinoxalin-2-yloxy)-ethyl]-piperidin-4-yl}-amide] gave an MIC (Escherichia coli) of 8 µg/mL (≈ 16.2 µM), an MIC (Staphylococcus aureus) of no more than 2 µg/mL and an MIC [1] of no more than 2 µg/mL. The MIC [2] was no more than 2 µg/mL and the MIC (Streptococcus pneumoniae) was 4 µg/mL (≈ 8.1 µM).
`COc1ccc2ncc(SCCN3CCC(NC(=O)c4nc5c(cc4Cl)SCC(=O)N5)CC3)cc2c1` [Example 56, 7-chloro-3-oxo-3,4-dihydro-2H-pyrido[3,2-b][1,4]thiazine-6-carboxylic acid {1-[2-(6-methoxy-quinolin-3-ylsulfanyl)-ethyl]-piperidin-4-yl}-amide] gave an MIC (Escherichia coli) of 4 µg/mL (≈ 7.35 µM), an MIC (Staphylococcus aureus) of no more than 2 µg/mL and an MIC [1] of 4 µg/mL (≈ 7.35 µM). For the same molecule, the MIC [2] was no more than 2 µg/mL and the MIC (Streptococcus pneumoniae) was 16 µg/mL (≈ 29.4 µM).
